Experimental data: patent US8614327B2 (Vertex Pharmaceuticals Incorporated, priority 2004, dated 2013)

Target: T1, ΔF508-CFTR (Homo sapiens, UniProt P13569, DEL508-508)
T1 construct: expressed in transfected cells
Assay: Membrane potential optical (FRET/VIPR) assay, identification of potentiator compounds
Assay type: cell-based
Conditions: Table 3, assay not given; for % Activity: relative efficacy
Procedure, shortened: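 NIH3T3 mouse fibroblasts stably expressing ΔF508-CFTR, temperature-corrected 24 h at 27° C., read on VIPR by FRET between CC2-DMPE and DiSBAC2(3). Potentiators identified in a double-addition format, first adding chloride-free (gluconate) medium with or without compound.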

T1 sequence (P13569 with tags, fused parts or gaps DEL508-508): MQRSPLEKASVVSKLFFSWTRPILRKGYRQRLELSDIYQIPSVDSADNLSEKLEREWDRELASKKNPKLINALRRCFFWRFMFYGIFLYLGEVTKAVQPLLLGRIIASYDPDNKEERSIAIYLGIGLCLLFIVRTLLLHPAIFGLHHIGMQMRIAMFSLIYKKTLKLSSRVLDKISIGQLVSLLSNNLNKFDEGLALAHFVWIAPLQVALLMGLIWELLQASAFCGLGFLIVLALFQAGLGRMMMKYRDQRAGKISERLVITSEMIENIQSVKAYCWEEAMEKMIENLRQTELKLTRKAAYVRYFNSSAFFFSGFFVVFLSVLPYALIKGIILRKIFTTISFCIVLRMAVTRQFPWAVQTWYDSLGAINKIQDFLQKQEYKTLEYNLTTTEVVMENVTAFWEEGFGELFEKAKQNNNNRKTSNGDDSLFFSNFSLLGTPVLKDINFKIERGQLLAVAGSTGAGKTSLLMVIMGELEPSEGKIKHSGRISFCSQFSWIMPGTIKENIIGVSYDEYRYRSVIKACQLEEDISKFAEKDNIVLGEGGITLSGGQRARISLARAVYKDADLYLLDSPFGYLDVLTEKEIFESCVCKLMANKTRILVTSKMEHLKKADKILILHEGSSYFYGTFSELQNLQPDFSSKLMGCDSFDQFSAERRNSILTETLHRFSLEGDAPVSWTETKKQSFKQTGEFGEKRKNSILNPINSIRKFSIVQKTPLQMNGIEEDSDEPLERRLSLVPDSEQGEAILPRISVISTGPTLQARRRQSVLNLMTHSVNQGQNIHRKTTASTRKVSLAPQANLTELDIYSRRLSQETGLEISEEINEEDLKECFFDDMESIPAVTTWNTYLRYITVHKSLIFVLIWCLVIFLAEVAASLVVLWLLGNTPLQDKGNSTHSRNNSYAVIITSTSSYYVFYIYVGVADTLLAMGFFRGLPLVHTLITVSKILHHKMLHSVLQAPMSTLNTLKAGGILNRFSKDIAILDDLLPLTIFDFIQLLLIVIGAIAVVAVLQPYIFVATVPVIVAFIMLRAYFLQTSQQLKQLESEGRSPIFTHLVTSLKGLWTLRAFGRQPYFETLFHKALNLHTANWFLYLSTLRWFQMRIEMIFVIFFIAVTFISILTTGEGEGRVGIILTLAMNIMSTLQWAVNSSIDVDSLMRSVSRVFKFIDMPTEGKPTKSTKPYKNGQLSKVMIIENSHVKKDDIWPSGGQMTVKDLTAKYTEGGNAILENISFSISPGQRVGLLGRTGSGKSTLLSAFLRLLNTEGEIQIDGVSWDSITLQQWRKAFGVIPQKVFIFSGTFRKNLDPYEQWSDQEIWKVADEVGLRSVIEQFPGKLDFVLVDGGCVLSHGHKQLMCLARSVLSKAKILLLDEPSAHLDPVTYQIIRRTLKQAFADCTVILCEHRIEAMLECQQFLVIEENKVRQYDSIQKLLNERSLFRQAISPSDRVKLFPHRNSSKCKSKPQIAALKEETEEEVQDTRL

| % Activity | EC50 | Compound |
| --- | --- | --- |
| +++ (>100%) | – | COc1ccc(OC)c(-c2ccccc2NC(=O)c2c[nH]c3ccccc3c2=O)c1 [Compound 361, N-[2-(2,5-dimethoxyphenyl)phenyl]-4-oxo-1H-quinoline-3-carboxamide] |
| ++ (between 25% to 100%) | < 10 µM | COc1ccc2[nH]cc(C(=O)Nc3ccc(N4CCC(C)(C)C4)cc3C(F)(F)F)c(=O)c2c1 [Compound 504, N-[4-(3,3-dimethylpyrrolidin-1-yl)-2-(trifluoromethyl)phenyl]-6-methoxy-4-oxo-1H-quinoline-3-carboxamide] |
| ++ (between 25% to 100%) | < 10 µM | O=C(Nc1ccc2c(c1)NCCC2)c1c[nH]c2ccccc2c1=O [Compound 299, 4-Oxo-N-(1,2,3,4-tetrahydroquinolin-7-yl)-1H-quinoline-3-carboxamide] |
| ++ (between 25% to 100%) | < 10 µM | CC1(c2cc(F)c(NC(=O)c3cnc4ccccc4c3O)cc2O)CCCCCC1 [Compound 483, N-[2-fluoro-5-hydroxy-4-(1-methylcycloheptyl)-phenyl]-4-hydroxy-quinoline-3-carboxamide] |
| ++ (between 25% to 100%) | < 10 µM | Cc1ccc(C)c(NC(=O)c2c[nH]c3ccccc3c2=O)c1 [Compound 434, N-(2,5-dimethylphenyl)-4-oxo-1H-quinoline-3-carboxamide] |
| ++ (between 25% to 100%) | < 10 µM | O=C(Nc1ccc(Cl)cc1)c1c[nH]c2ccccc2c1=O [Compound 405, N-(4-chlorophenyl)-4-oxo-1H-quinoline-3-carboxamide] |
| + (<25%) | 25 to 60 µM | N#CCc1ccc(NC(=O)c2c[nH]c3ccccc3c2=O)cc1 [Compound 110, N-[4-(cyanomethyl)phenyl]-4-oxo-1H-quinoline-3-carboxamide] |
| ++ (between 25% to 100%) | 10 to 25 µM | CC(=O)N1CC2(CC2)c2ccc(NC(=O)c3c[nH]c4ccccc4c3=O)cc21 [Compound 175, 4-Oxo-1,4-dihydro-quinoline-3-carboxylic acid N-(1′-Acetyl-1′,2′-dihydrospiro[cyclopropane-1,3′-3H-indol]-6′-yl)-amide] |
| ++ (between 25% to 100%) | < 10 µM | CCc1ccc(N(C)C)cc1NC(=O)c1c[nH]c2ccccc2c1=O [Compound 409, N-(5-dimethylamino-2-ethyl-phenyl)-4-oxo-1H-quinoline-3-carboxamide] |
| ++ (between 25% to 100%) | 10 to 25 µM | CCOc1ccccc1-c1ccc(CN)cc1NC(=O)c1c[nH]c2ccccc2c1=O [Compound 163, 4-Oxo-1,4-dihydro-quinoline-3-carboxylic acid (4-aminomethyl-2′-ethoxy-biphenyl-2-yl)-amide] |
| ++ (between 25% to 100%) | < 10 µM | CC(C)c1cccc(-c2ccccc2NC(=O)c2c[nH]c3ccccc3c2=O)c1 [Compound 290, N-[2-(3-isopropylphenyl)phenyl]-4-oxo-1H-quinoline-3-carboxamide] |
| + (<25%) | 25 to 60 µM | O=C(Nc1cccn2ncnc12)c1c[nH]c2ccccc2c1=O [Compound 146, 4-oxo-N-(1,7,9-triazabicyclo[4.3.0]nona-2,4,6,8-tetraen-5-yl)-1H-quinoline-3-carboxamide] |
| ++ (between 25% to 100%) | < 10 µM | O=C(Nc1ccccc1-c1ccccc1)c1c[nH]c2ccccc2c1=O [Compound 461, 4-oxo-N-(2-phenylphenyl)-1H-quinoline-3-carboxamide] |
| ++ (between 25% to 100%) | < 10 µM | O=C(Nc1ccccc1-c1ccc(Cl)cc1)c1c[nH]c2ccccc2c1=O [Compound 424, N-[2-(4-chlorophenyl)phenyl]-4-oxo-1H-quinoline-3-carboxamide] |
| ++ (between 25% to 100%) | < 10 µM | Cc1cc2ccc(NC(=O)c3c[nH]c4ccccc4c3=O)cc2[nH]1 [Compound 104, N-(2-methyl-1H-indol-6-yl)-4-oxo-1H-quinoline-3-carboxamide] |
| ++ (between 25% to 100%) | 10 to 25 µM | CCc1ccc(NC(=O)c2c[nH]c3ccccc3c2=O)cc1NC(=O)OC [Compound 129, [2-ethyl-5-[(4-oxo-1H-quinolin-3-yl)carbonylamino]phenyl]aminoformic acid methyl ester] |
| ++ (between 25% to 100%) | < 10 µM | CCCc1ccc(N(C)C)cc1NC(=O)c1c[nH]c2ccccc2c1=O [Compound 98, N-(5-dimethylamino-2-propyl-phenyl)-4-oxo-1H-quinoline-3-carboxamide] |
| ++ (between 25% to 100%) | < 10 µM | N#Cc1cccc(-c2ccccc2NC(=O)c2c[nH]c3ccccc3c2=O)c1 [Compound 83, N-[2-(3-cyanophenyl)phenyl]-4-oxo-1H-quinoline-3-carboxamide] |
| ++ (between 25% to 100%) | < 10 µM | O=C(Nc1ccccc1C(O)c1ccccc1)c1c[nH]c2ccccc2c1=O (centres unmarked) [Compound 228, N-[2-(hydroxy-phenyl-methyl)phenyl]-4-oxo-1H-quinoline-3-carboxamide] |

| % Activity | EC50 | Compound |
| --- | --- | --- |
| ++ (between 25% to 100%) | < 10 µM | O=C(Nc1ccc2c(c1)OC(F)(F)C(F)(F)O2)c1c[nH]c2ccccc2c1=O [Compound 440, N-(2,2,3,3-tetrafluoro-2,3-dihydrobenzo[b][1,4]dioxin-6-yl)-1,4-dihydro-4-oxoquinoline-3-carboxamide] |
| ++ (between 25% to 100%) | – | N#CCc1ccc(-c2ccccc2NC(=O)c2c[nH]c3ccccc3c2=O)cc1 [Compound 333, N-[2-[4-(cyanomethyl)phenyl]phenyl]-4-oxo-1H-quinoline-3-carboxamide] |
| ++ (between 25% to 100%) | < 10 µM | C[S+]([O-])c1ccc(-c2ccccc2NC(=O)c2c[nH]c3ccccc3c2=O)cc1 (centres unmarked) [Compound 134, N-[2-(4-methylsulfinylphenyl)phenyl]-4-oxo-1H-quinoline-3-carboxamide] |
| ++ (between 25% to 100%) | < 10 µM | CCCOc1ccc(NC(=O)c2c[nH]c3ccccc3c2=O)cc1N [Compound 368, N-(3-amino-4-propoxy-phenyl)-4-oxo-1H-quinoline-3-carboxamide] |
| ++ (between 25% to 100%) | 10 to 25 µM | Cn1ccc2ccc(NC(=O)c3c[nH]c4ccccc4c3=O)cc21 [Compound 169, N-(1-methyl-1H-indol-6-yl)-4-oxo-1H-quinoline-3-carboxamide] |
| ++ (between 25% to 100%) | 10 to 25 µM | O=C(Nc1ccc2c(c1)C(O)CCC2)c1c[nH]c2ccccc2c1=O (centres unmarked) [Compound 200, 1,4-dihydro-N-(1,2,3,4-tetrahydro-1-hydroxynaphthalen-7-yl)-4-oxoquinoline-3-carboxamide] |
| ++ (between 25% to 100%) | < 10 µM | CCOc1ccccc1-c1ccc(N)cc1NC(=O)c1c[nH]c2ccccc2c1=O [Compound 393, N-[5-amino-2-(2-ethoxyphenyl)-phenyl]-4-oxo-1H-quinoline-3-carboxamide] |
| ++ (between 25% to 100%) | 10 to 25 µM | COc1ccc(C)cc1NC(=O)c1c[nH]c2ccccc2c1=O [Compound 120, N-(2-methoxy-5-methyl-phenyl)-4-oxo-1H-quinoline-3-carboxamide] |
| + (<25%) | 25 to 60 µM | O=C(Nc1nc2ccccc2[nH]1)c1c[nH]c2ccccc2c1=O [Compound 216, N-(3H-benzoimidazol-2-yl)-4-oxo-1H-quinoline-3-carboxamide] |
| ++ (between 25% to 100%) | < 10 µM | O=C(Nc1ccc(C2CCCCC2)c(O)c1)c1c[nH]c2cccc(O)c2c1=O [Compound 522, N-(4-cyclohexyl-3-hydroxy-phenyl)-5-hydroxy-4-oxo-1H-quinoline-3-carboxamide] |
| ++ (between 25% to 100%) | < 10 µM | O=C(Nc1ccc2cc(C(F)(F)F)[nH]c2c1)c1c[nH]c2ccc(F)cc2c1=O [Compound 495, 6-fluoro-4-oxo-N-[2-(trifluoromethyl)-1H-indol-6-yl]-1H-quinoline-3-carboxamide] |
| + (<25%) | 25 to 60 µM | O=C(Nc1ccc2ncccc2c1)c1c[nH]c2ccccc2c1=O [Compound 280, 4-oxo-N-(6-quinolyl)-1H-quinoline-3-carboxamide] |
| ++ (between 25% to 100%) | < 10 µM | CC(C)c1ccc(NC(=O)c2c[nH]c3ccc(Cl)cc3c2=O)c(C(F)(F)F)c1 [Compound 657, 6-chloro-N-[4-isopropyl-2-(trifluoromethyl)phenyl]-4-oxo-1H-quinoline-3-carboxamide] |
| +++ (>100%) | < 10 µM | COc1ccc(C(C)C)cc1-c1ccccc1NC(=O)c1c[nH]c2ccccc2c1=O [Compound 59, N-[2-(5-isopropyl-2-methoxy-phenyl)phenyl]-4-oxo-1H-quinoline-3-carboxamide] |
| ++ (between 25% to 100%) | < 10 µM | O=C(Nc1ccc(C2CCCCC2)c(O)c1)c1c[nH]c2ccccc2c1=O [Compound 564, N-(4-cyclohexyl-3-hydroxy-phenyl)-4-oxo-1H-quinoline-3-carboxamide] |
| + (<25%) | 25 to 60 µM | Cc1ccnc(NC(=O)c2c[nH]c3ccccc3c2=O)c1 [Compound 84, N-(4-methyl-2-pyridyl)-4-oxo-1H-quinoline-3-carboxamide] |
| ++ (between 25% to 100%) | < 10 µM | CC(C)(C)c1cc(C(C)(C)C)c(NC(=O)c2c[nH]c3ccc(S(=O)(=O)N4CCCC4)cc3c2=O)cc1O [Compound 255, N-(5-hydroxy-2,4-ditert-butyl-phenyl)-4-oxo-6-pyrrolidin-1-ylsulfonyl-1H-quinoline-3-carboxamide] |
| ++ (between 25% to 100%) | – | CCc1cccc(C(C)C)c1NC(=O)c1c[nH]c2ccccc2c1=O [Compound 314, N-(2-ethyl-6-isopropyl-phenyl)-4-oxo-1H-quinoline-3-carboxamide] |
